Data: PubChem BioAssay AID1996
In brackets after ≈: the same amount, converted by molar mass.

conditions: buffer; pH 7.4; 200.0 µM

Structure (SMILES)	solubility kinetic [µg/mL]
CCCn1c(N)c(C(=O)COc2ccc(Br)cc2F)c(=O)n(C)c1=O	3.9 (≈ 9.42 µM)
CC(C)C(C(=O)NC1=NCCS1)c1ccc(Cl)cc1 (centres undefined)	1.7 (≈ 5.73 µM)
O=C(c1cccs1)N1CCN=C1SCc1ccccc1F	< 0.3
O=C(O)c1cc(S(=O)(=O)NCC2COc3ccccc3O2)ccc1Cl (centres undefined)	> 57.6
CC(=O)c1c(COC(=O)c2ccccc2Cl)nc2ccccc2[n+]1[O-]	15.9 (≈ 44.6 µM)
CC(C)c1ncc(C(O)c2ccccc2)n1C (centres undefined)	> 34.5
Clc1ccccc1OCCCOc1cccc2cccnc12	3.9 (≈ 12.4 µM)
CCn1c(Cc2ccc(OC)cc2)nc2ccccc21	> 40
O=C(Nc1ccc(CN2CCOCC2)cc1)c1ccc(Cl)cc1Cl	19.9 (≈ 54.5 µM)
O=C(Cc1ccccc1F)Nc1cccc(S(=O)(=O)N2CCOCC2)c1	> 56.8
COc1cc(C)c(CN2CCC(Cc3ccccc3)CC2)cc1C	26.4 (≈ 81.6 µM)
CC(=NCc1cccnc1)c1c(O)n(-c2ccc(Cl)cc2)c(=O)[nH]c1=O	2 (≈ 5.39 µM)
CCN1CCN(C(=O)CSc2ccc(C)cc2)CC1	41.2 (≈ 148 µM)
CN(C)/C=C(\C#N)S(=O)(=O)c1ccc(Cl)cc1	37.7 (≈ 139 µM)
CSc1ccccc1C(=O)C1CCCN(Cc2ccncc2)C1 (centres undefined)	41.4 (≈ 127 µM)
COc1ccc(NC(=O)C2(c3ccccc3)CCCC2)cc1	2.6 (≈ 8.8 µM)
CN1CCC(NC(=O)NC2CCCCC2)CC1	> 35.9
Cc1cc(C(=O)COC(=O)C23CC4CC(CC(O)(C4)C2)C3)c(C)n1C	> 51.8
CCOc1cccc(/C=C/c2ccc3cccc(O)c3n2)c1O	< 0.7
Cn1c(SCC(N)=O)nnc1-c1ccc(C(C)(C)C)cc1	> 45.7
COc1cc(CN2CCC(Cc3ccccc3)CC2)c([N+](=O)[O-])cc1OC	33.5 (≈ 90.4 µM)
CCc1ccccc1NC(=O)CC(NCc1ccccc1)C(=O)O (centres undefined)	> 49
COc1ccccc1CC(=O)Nc1ncc(C)s1	8.4 (≈ 32 µM)
COc1ccc(NC(=O)c2cc3ccc(O)cc3o/c2=N\O)cc1	< 0.3

Structure (SMILES)	solubility kinetic [µg/mL]
Cc1onc(-c2ccccc2)c1C(=O)NN1CCOCC1	> 43.1
O=C(NC(=O)N1CCSCC1)c1c(Cl)cccc1Cl	> 47.9
Cc1ccc(C(C)C)c(OCC#CCN2CCCC2)c1.O=C(O)C(=O)O	25.7
CCN1CC(CN(C)Cc2nc(-c3ccco3)oc2C)CC1=O (centres undefined)	> 47.6
O=C(CSc1ccc([N+](=O)[O-])cc1)Nc1cccc(S(=O)(=O)N2CCOCC2)c1	17.1 (≈ 39.1 µM)
COc1ccc(C=O)cc1CSc1ncccc1C(=O)O	> 45.5
CN(C)C(CNC(=O)CCOc1ccccc1)c1ccco1 (centres undefined)	43 (≈ 142 µM)
COc1cccc2cc(C(=O)OCC(=O)N3CC(C)OC(C)C3)c(=O)oc12 (centres undefined)	> 56.3
CN(CCS(=O)(=O)c1ccc(Cl)cc1)Cc1cccnc1	> 48.7
COc1ccc(S(=O)(=O)NC(C)C(=O)NC2CC2)cc1C (centres undefined)	> 46.9
COC(=O)c1ccc2nc(-c3ccc4c(c3)OCO4)cn2c1	1.2 (≈ 4.05 µM)
N#Cc1ccccc1OCC(=O)OCC(=O)NC1CCCCCC1	> 49.6
COc1ccc(N2CCCC2)c(NC(=O)COc2ccccc2)c1	3.8 (≈ 11.6 µM)
CCC(=O)NC1(C(F)(F)F)C(=O)Nc2c1c(=O)[nH]c(=O)n2CC(C)C (centres undefined)	54 (≈ 149 µM)
CCC(C)N(C)C1CCN(C(=S)Nc2ccc(OC)cc2)CC1 (centres undefined)	> 50.3
COc1ccc(CC(=O)Nc2nc(C(C)(C)C)cs2)cc1	2.1 (≈ 6.9 µM)
O=[N+]([O-])c1ccc2c(c1)nc(CO)n2Cc1ccccc1	9.3 (≈ 32.8 µM)
O=C(O)c1ccccc1Sc1ncnc2sccc12	> 43.3
COC(=O)c1cc2occc2n1Cc1nc(-c2ccccc2F)oc1C	1.4 (≈ 3.95 µM)
Cn1c(SCC(=O)NC2CC2)nnc1-c1ccccc1	> 43.3
Cc1ccc(C(=O)CSc2nnc3n2CCCCC3)s1	> 46.1
O=c1c2ccccc2[nH]c(=S)n1Cc1ccccc1Cl	0.9 (≈ 2.97 µM)
N#Cc1ccccc1NC(=O)CSc1ccc([N+](=O)[O-])cn1	0.7 (≈ 2.23 µM)
CCc1cccc(C)c1N1C(=O)CN(Cc2ccccc2)C1=S	12.1 (≈ 37.3 µM)

Structure (SMILES)	solubility kinetic [µg/mL]
CCOC(=S)SCC(=O)Nc1ncc(C)s1	40.1 (≈ 145 µM)
CC(C)(C)NC(=O)c1cccnc1Sc1ccccc1	> 43
O=C(CN1C(=O)C(=O)N(C2CCCC2)C1=O)Nc1cc(Cl)ccc1[N+](=O)[O-]	26.6 (≈ 67.4 µM)
COc1ccc2cc(/C=N/O)c(Cl)nc2c1	0.9 (≈ 3.8 µM)
Cc1occc1C(=O)N(C)Cc1nc(-c2ccccc2)no1	40.9 (≈ 138 µM)
O=c1oc2ccccc2n1Cc1cccc(Cl)c1	0.8 (≈ 3.08 µM)
CCCOc1ccc(/C=C/C(=O)NC2CCCCC2)cc1OC	< 0.7
O=C(CCc1ccccc1)OCC(=O)c1cccc([N+](=O)[O-])c1	> 47
COc1ccc(NC(=O)C(=O)Nc2cccc3ccccc23)c(OC)c1	< 0.4
Nc1ccc(SCc2cccnc2)cc1	31 (≈ 143 µM)
CSCC[C@H](NC(=O)Nc1ccc(Oc2ccccc2)cc1)C(=O)O	> 54.1
c1ccc(Oc2cccc(Oc3ccccc3)n2)cc1	< 0.6
CN(C)CCN(C(=O)c1ccc2ccccc2c1)c1nc2ccc(F)cc2s1.Cl	30
COc1ccc(Cc2nc(-c3cccnc3)no2)cc1OC	41 (≈ 138 µM)
CNC(=O)c1ccc(NC(=O)CCc2c(C)noc2C)cc1	> 45.2
CC(C#N)Sc1nnc(-c2ccccc2F)n1C1CC1 (centres undefined)	> 43.3
COc1ccc(S(=O)(=O)Nc2noc3ccccc23)cc1	42.1 (≈ 138 µM)
COc1ccc(C(=O)COc2ccccc2C#N)cc1	3.6 (≈ 13.5 µM)
C=CCNC(=O)CN1CCC(c2nc3ccccc3[nH]2)CC1	> 44.8
CCCc1cc(=O)c2ccc(OC/C(C)=N/O)cc2o1	38.3 (≈ 139 µM)
CCCCn1c(=S)[nH]c2cc(S(=O)(=O)N3CCOCC3)ccc21	> 53.3
Cc1ccc(Nc2nc(N)c([N+](=O)[O-])c(NCc3ccccc3)n2)cc1	0.3 (≈ 0.856 µM)
CC(C)(C)c1ccc(S(=O)(=O)NCC2CCCO2)cc1 (centres undefined)	34.9 (≈ 117 µM)
CC1CN(C(=O)Nc2ccc(F)cc2F)CC(C)O1 (centres undefined)	> 40.5

Structure (SMILES)	solubility kinetic [µg/mL]
O=C(Cn1cncn1)N/N=C/c1ccccc1O	> 36.8
Cc1cc(C)c2c(CN3CCOCC3)cc(=O)oc2c1	37.2 (≈ 136 µM)
CCN(CC)CC(O)Cn1c(-c2cccc(Cl)c2)nc2cc(C)c(C)cc21 (centres undefined)	53.4 (≈ 138 µM)
O=C(NCc1cccnc1)/C(=C/c1ccc([N+](=O)[O-])cc1)NC(=O)c1ccccc1	10.2 (≈ 25.3 µM)
CCOc1ccc(S(=O)(=O)n2cnc3ccccc32)cc1	42.4 (≈ 140 µM)
CN(C)CCn1c(COc2ccccc2)nc2ccccc21.Cl.O	> 60.7
COC(=O)c1cc(CSC(=N)N)ccc1OCCC(C)C.Cl	> 52
O=C(Cc1ccc(-c2ccccc2)cc1)NC1CCCC1	< 0.6
O=C(CN1CCCCC1)Nc1ccccc1C(=O)NC1CC1	> 45.2
C=C(C)c1cccc(C(C)(C)NC(=O)Nc2cccnc2)c1	9.4 (≈ 31.8 µM)
O=C(c1cn(Cc2ccccc2)c2ccccc12)C1CC1	< 0.6
O=C(OCC(=O)c1ccc(Cl)cc1Cl)c1ccccn1	> 46.5
CNC(=O)/C(C#N)=C/c1cc(C)n(-c2ccc(N3CCOCC3)cc2)c1C	1.5 (≈ 4.12 µM)
CCCCN(C(=O)c1ccc2c(c1)OCO2)C1CCS(=O)(=O)C1 (centres undefined)	> 50.9
COC(=O)c1sccc1NC(=O)Nc1ccccc1C	23.6 (≈ 81.3 µM)
O=C(c1ccccc1)c1cnc[nH]1	25.6 (≈ 149 µM)
CC1CCCCN1C(=O)CSc1nc2ncccc2[nH]1 (centres undefined)	> 43.6
O=C(Cc1ccccc1)NCC(=O)OCC(=O)c1ccc(F)cc1	> 49.4
CC/C(O)=C1\C(=O)CCCC1=NCCc1nc2ccccc2[nH]1	> 46.7
COc1ccc(CCNCc2ccc(C)s2)cc1OC.Cl	> 49.2
Cc1ccc(C(=O)OCC(=O)NCc2ccc3c(c2)OCO3)o1	> 47.6
COCCSc1ccccc1C(=O)Nc1ccccc1C(C)C	48.9 (≈ 148 µM)
O=C(CN1CCN(c2ccc(O)cc2)CC1)Nc1ccc(S(=O)(=O)N2CCCC2)cc1	44.6 (≈ 100 µM)
CC(C)(CNc1ccc([N+](=O)[O-])cc1Cl)N1CCOCC1	1.4 (≈ 4.46 µM)

Structure (SMILES)	solubility kinetic [µg/mL]
Cc1ccnc(NC(=O)c2cccc(OC(F)F)c2)n1	39.9 (≈ 143 µM)
CC(Nc1nc(N2CCOCC2)nc2ccccc12)c1ccccc1 (centres undefined)	6.8 (≈ 20.3 µM)
CCOCCCNC(=O)c1cc2c(s1)-c1ccccc1SC2	27.6 (≈ 82.8 µM)
O=C(O)c1ccc(NC(=O)c2ccc(COc3ccccc3)o2)cc1	> 50.6
COc1cc(NC(=O)c2cc(C)no2)c(OC)cc1Cl	1.8 (≈ 6.07 µM)
CC(=O)Nc1ccc(NC(=O)N(c2ccccc2)c2ccccc2)cc1	6.4 (≈ 18.5 µM)
CSc1ccc(CN2CCc3c([nH]c4ccccc34)C2)cc1	2 (≈ 6.48 µM)
COC(=O)c1ccc(CNC(=O)c2coc3ccccc3c2=O)cc1	3.7 (≈ 11 µM)
COc1ccc(CC(=O)OCC(=O)NCc2ccc(C)cc2)cc1OC	> 53.6
O=C(COC(=O)c1cnccn1)Nc1cc(S(=O)(=O)N2CCOCC2)ccc1Cl	> 66.1
O=C1C2C3CCC(O3)C2C(=O)N1c1cccc(O)c1 (centres undefined)	> 38.9
O=C(Nc1ccccc1)Nc1ccc2ccccc2n1	< 0.2
CN(C)c1ccc(/C=C2\C(=O)NC(=O)N(CCc3ccc(F)cc3)C2=O)cc1	11.2 (≈ 29.4 µM)
CC(OC(=O)c1cccc([N+](=O)[O-])c1)C(=O)NCc1ccc2c(c1)OCO2 (centres undefined)	22.4 (≈ 60.2 µM)
CCc1nc(NCCO)c(C#N)c2c1CCCC2	35.5 (≈ 145 µM)
O=C1CSC(c2cccnc2)N1c1ccccc1 (centres undefined)	> 38.4
Cn1cccc1C(=O)NCCc1ccc(Cl)cc1	36.1 (≈ 137 µM)
COc1ccc(S(=O)(=O)N(C)CC(=O)NCCN2CCOCC2)cc1	51.5 (≈ 139 µM)
Cl.Oc1ccc(CC2(N3CCCC3)CCCCC2)cc1	40.5
CSc1ccc(/C=C2\NC(=O)NC2=O)cc1	9.8 (≈ 41.8 µM)
COC(=O)c1cc(OC)c(OC)cc1NC(=O)c1csc(C)c1	< 0.7
N#CCCN(Cc1cccs1)C(=O)c1ccc(Cl)cc1	> 45.7
O=C(CN1C(=O)CCS(=O)(=O)c2ccccc21)NCCc1ccccc1	55.3 (≈ 148 µM)
